The source of these data is patent publication US20200316090A1, “TARGETED THERAPEUTICS” (MADRIGAL PHARMACEUTICALS, INC., priority 2012, published 2020).

Where two headings read alike, the source gives them in different places.

Data set [1] in a line: Artificial membrane permeability assay (PAMPA). A general note: In PAMPA a lipid-coated filter parts donor from acceptor wells.
Procedure: In order to test the ability SDC-TRAP molecules of the invention to enter cells, an artificial membrane permeability assay (“PAMPA”) was used. […] LC/MS was used in conjunction with PAMPA assays to determine the ability of the SDC-TRAP molecules of the invention to permeate cells.
Pre-coated PAMPA plates were warmed to room temperature for at least 30 minutes prior to adding assay components.
Stock solutions were prepared with the SDC-TRAP molecules to be tested. In order to make a working solution, either 50 μL of 100 μM Stock in DMSO+950 μL of PBS or 50 μL of 200 stock was added to 96 deep well plate, resulting in a 5 μM final concentration or a 10 μM final concentration, respectively. […] 200 μL of PBS was added into the corresponding wells of an acceptor PAMPA plates.
The acceptor plate was lowered onto the donor plate and allowed to incubate for five hours. After five hours, a 50 μL aliquot was removed from each well of each plate and added into a new 96 deep-well plate.
100 μL of methanol containing an internal standard was added to each aliquot and analyzed by LC/MS. The internal standard was 150 ng/ml SDC-TRAP-0002.
In order to calculate the permeability for each SDC-TRAP molecule and the control molecules, the following formula was used:
Permeability (in Unit of Cm/s):
[formula] • C0=initial compound concentration in donor well (mM) • CD (t)=compound concentration in donor well at time t. (mM) • CA (t)=compound concentration in acceptor well at time t. (mM) • VD=donor well volume=0.3 mL • VA=acceptor well volume=0.2 mL • A=filter area=0.3 cm^2 • t=incubation time=18000 s (5 h)
For the data presented in the table below, peak area was used in place of concentration in the formula above.
Data set [2] can be described thus: Tissue distribution of SDC-TRAP and degradation products in tumor-bearing mice (plasma, tumor, heart). Format: in vivo, Female SCID Mouse (H1975). Conditions: for Kp: read-out: Tumor/Plasma Ratio.
Procedure: A 150 ng/mL solution of SDC-TRAP-0002 in methanol was prepared using an internal spiking solution (500 μg/mL SDC-TRAP-0002 in DMSO). Using the 10 mM stock solutions of the SDC-TRAP molecule and its Hsp90i binding moiety and effector moiety in DMSO, spiking solutions were prepared at 0.025, 0.05, 0.1, 0.5, 1, 5, 10, 50, 100, 250, and 500 μM in DMSO. 5 μL of each spiking solution was added to a 96-deep well plate.
Quality control standards were prepared from 5 μL of 0.1, 1, and 10 μM calibration standard spiking solution added in triplicate into 96-deep well plate and adding 50 μL of matrix (plasma or homogenized tumor).
To prepare test samples, test plasma was diluted as needed using blank plasma. Tumor samples were pulverized in liquid nitrogen, weighed, and homogenized in PBS at 5× volume to sample weight. 50 μL of unknown plasma or homogenized tumor sample was mixed with 5 μL of DMSO. The samples were extracted by precipitating calibration standards, QC standards, and unknown samples with 200 μL of internal standard solution. The samples were mixed by vortex at room temperature for approximately 1.5 minutes, then centrifuge at 2-8° C. 150 μL of supernatant was collected and 25 μL of water added. Samples were mixed and analyzed by LC-MS/MS.
Samples of plasma, heart and tumor were excised from a euthanized mouse, homogenized in PBS at 5 times tissue weight and diluted in 5 μL DMSO/50 μL sample. Prior to analysis, 55 μL samples and calibration standards were precipitated in 200 μL methanol in 96-well plates. Samples were mixed on a vortex mixer for 1.5 minutes at 1500 rpm at room temperature, then centrifuged at 4400 rpm for 10 minutes at 8° C. 150 μL of each supernatant was transferred to a well of a new 96-well plate, and 25 μL of water was added and mixed with the sample. […] For the analysis of samples from female SCID mice, a gradient of solvent A (water/0.1% formic acid) and B (acetonitrile/0.1% formic acid) was used as in Table A below.
The nature of data set [3]: Mouse plasma stability (Examples 16-18). Format: in vitro ADME. To be noted: for Mouse (5 μM) % Remaining 1 h (37° C.) §: data from single parent peak; for Mouse (5 μM) % Remaining 1 h (37° C.) * / Mouse (10 μM) % Remaining 1 h (37° C.) *: sum of both peaks of parent chromatogram.
Procedure: This solution was used to precipitate all plasma samples in the study. 200 μL was pipetted into a 96 deepwell plate over dry ice. 10 μL of 1 mM stock in DMSO was added to a 1.5 mL microfuge tube, then 990 μL of plasma. Samples were mixed by vortex, then 50 μL of each sample was added in triplicate to a 96-well plate containing internal standard solution. This was designated the 0 hour time point sample. 250 μL of the remaining plasma sample was added to each of four 96 deepwell plates—one per time point. Samples were incubated at 37° C. with gentle shaking for 0.25, 0.5, and 1 hour. After each time point, one plate of each sample was removed from the shaker and placed on wet ice for approximately 2 minutes. 50 μL plasma aliquots (in triplicate) were added to the deepwell plate containing internal standard solution. After the last time point was extracted, the 96 deepwell plate was vortexed, then centrifuged at 2-8° C. 150 μL of supernatant was collected and 25 μL of water was added. Samples were mixed and analyzed by LC-MS/MS.
The stability of seven SDC-TRAP types in mouse plasma was measured as follows. 990 μL mouse plasma aliquots from a common stock were spiked with 10 μL of 1 mM stock of one of seven SDC-TRAP samples identified in the table below. Each sample was mixed and divided into 250 μL aliquots, each representing time points 0, 15 minutes, 30 minutes or 1 hour. At the prescribed time point, 3×50 μL samples were each mixed with 200 μL of methanol containing internal standard and held on dry ice until all time point samples were extracted. The samples collectively were vortex mixed for 1.5 minutes at 1500 rpm, then centrifuged at 4400 rpm for 10 minutes at 8° C.
The mark [4] stands for this setting: Permeability (10^−6 cm/s), 5 h incubation, peak area used in place of concentration, first table.
[5] abbreviates: Permeability (cm/s), 5 h incubation, peak area used in place of concentration, first table.

For `Nc1cccc2c1CN(C1CCC(=O)NC1=O)C2=O` (stereo not drawn) [Lenalidomide, lenalidomide, reference compound], in data set [1] (5 h incubation, first table), the “Mass Retention (%)” value turned out to be 26.0%. For the same molecule, the Papp at 5 h in data set [1] (setting [4]) and in data set [1] (setting [5]) was 0.062 ×10⁻⁶ cm/s each time. Moreover, the Kp at 1 h in data set [2] (female, SCID, mouse, in vivo) was 11.9. The same molecule gave a Kp at […] in data set [2] (female, SCID, mouse, in vivo) of 0.449.

Turning to `CCc1c2c(nc3ccc(OC(=O)N(C)CCOCCn4ccc5cc(-n6c(O)nnc6-c6cc(C(C)C)c(O)cc6O)ccc54)cc13)-c1cc3c(c(=O)n1C2)COC(=O)C3(O)CC` (stereo not drawn) [SDC-TRAP-0029, 4,11-diethyl-4-hydroxy-3,14-dioxo-3,4,12,14-tetrahydro-1H-pyrano[3′,4′:6,7]indolizino[1,2-b]quinolin-9-yl(2-(2-(5-(3-(2,4-dihydroxy-5-isopropylphenyl)-5-hydroxy-4H-1,2,4-triazol-4-yl)-1H-indol-1-yl)ethoxy)ethyl)(methyl)carbamate], in data set [3] (1 h), the “Mouse (5 μM) % Remaining 1 h (37° C.) §” value amounted to 43%, the “Mouse (5 μM) % Remaining 1 h (37° C.) *” value is 46% and the “Mouse (10 μM) % Remaining 1 h (37° C.) *” value came out at 47%. Further, the “Mouse (5 μM) % Remaining 19 h (37° C.)” value in data set [3] was 29%. For the same molecule, the Papp (usually a coefficient for how fast a substance crosses the barrier) at 5 h in data set [1] came out at 0.00646 ×10⁻⁶ cm/s. In data set [1] (same protocol, second table), the “Mass Retention (%)” value came to 84.0% and the “Permeability (10^−6 cm/s)” value is given as 0.00646 10^−6 cm/s.

As for `CCc1c2c(nc3ccc(O)cc13)-c1cc3c(c(=O)n1C2)COC(=O)C3(CC)OC(=O)N(C)CCOCCn1ccc2cc(-n3c(O)nnc3-c3cc(C(C)C)c(O)cc3O)ccc21` (stereo not drawn) [SDC-TRAP-0037, 4,11-diethyl-9-hydroxy-3,14-dioxo-3,4,12,14-tetrahydro-1H-pyrano[3′,4′:6,7]indolizino[1,2-b]quinolin-4-yl (2-(2-(5-(3-(2,4-dihydroxy-5-isopropylphenyl)-5-hydroxy-4H-1,2,4-triazol-4-yl)-1H-indol-1-yl)ethoxy)ethyl) (methyl)carbamate], in data set [3] (1 h), the “Mouse (5 μM) % Remaining 1 h (37° C.) *” value amounted to 67% and the “Mouse (10 μM) % Remaining 1 h (37° C.) *” value worked out at 95%. Moreover, the “Mouse (5 μM) % Remaining 19 h (37° C.)” value in data set [3] was 6%.

For `CCc1c2c(nc3ccc(OC(=O)N(C)CCCCN4CCN(Cc5ccc(-n6c(O)nnc6-c6cc(C(C)C)c(O)cc6O)cc5)CC4)cc13)-c1cc3c(c(=O)n1C2)COC(=O)C3(O)CC` (stereo not drawn) [SDC-TRAP-0044, 4,11-diethyl-4-hydroxy-3,14-dioxo-3,4,12,14-tetrahydro-1H-pyrano[3 ‘,4’:6,7]indolizino[1,2-b]quinolin-9-yl (4-(4-(4-(3-(2,4-dihydroxy-5-isopropylphenyl)-5-hydroxy-4H-1,2,4-triazol-4-yl)benzyl)piperazin-1-yl)butyl)(methyl)carbamate], in data set [3] (1 h), the “Mouse (5 μM) % Remaining 1 h (37° C.) *” value is reported as 50% and the “Mouse (10 μM) % Remaining 1 h (37° C.) *” value came to 61%. Besides, in data set [3], the “Mouse (5 μM) % Remaining 19 h (37° C.)” value is on record as 41%.

For `CCc1c2c(nc3ccc(OC(=O)N4CCN(c5ccc(-n6c(O)nnc6-c6cc(C(C)C)c(O)cc6O)cc5)CC4)cc13)-c1cc3c(c(=O)n1C2)COC(=O)C3(O)CC` (stereo not drawn) [SDC-TRAP-0045, 4,11-diethyl-4-hydroxy-3,14-dioxo-3,4,12,14-tetrahydro-1H-pyrano[3′,4′:6,7]indolizino[1,2-b]quinolin-9-yl 4-(4-(3-(2,4-dihydroxy-5-isopropylphenyl)-5-hydroxy-4H-1,2,4-triazol-4-yl)phenyl)piperazine-1-carboxylate], in data set [3] (1 h), the “Mouse (5 μM) % Remaining 1 h (37° C.) §” value is on record as 72%, the “Mouse (5 μM) % Remaining 1 h (37° C.) *” value is recorded as 77% and the “Mouse (10 μM) % Remaining 1 h (37° C.) *” value came out at 45%. Further, the “Mouse (5 μM) % Remaining 19 h (37° C.)” value in data set [3] worked out at 50%.

In the case of `CC(C)c1cc(-c2nnc(O)n2-c2ccc(CN3CCN(C(=O)c4ccc(CCc5c[nH]c6nc(N)[nH]c(=O)c56)cc4)CC3)cc2)c(O)cc1O` [SDC-TRAP-0068, 2-amino-5-(4-(4-(4-(3-(2,4-dihydroxy-5-isopropylphenyl)-5-hydroxy-4H-1,2,4-triazol-4-yl)benzyl)piperazine-1-carbonyl)phenethyl)-3H-pyrrolo[2,3-d]pyrimidin-4(7H)-one], the “% Remaining (l h)” value in data set [3] (mouse, plasma, 1 h, 10 µM) is 96.5%.

Consider `CCNC(=O)c1nnc(-c2cc(C(C)C)c(O)cc2O)n1-c1ccc(Oc2ccc(C(=O)N3CCC(C(=O)OC4(CC)C(=O)OCc5c4cc4n(c5=O)Cc5c-4nc4ccc(O)cc4c5CC)CC3)cc2)cc1` (stereo not drawn) [SDC-TRAP-0154, 4,11-Diethyl-9-hydroxy-3,14-dioxo-3,4,12,14-tetrahydro-1H-pyrano[3′,4′:6,7]indolizino[1,2-b]quinolin-4-yl 1-(4-(4-(3-(2,4-dihydroxy-5-isopropylphenyl)-5-(ethylcarbamoyl)-4H-1,2,4-triazol-4-yl)phenoxy)benzoyl)piperidine-4-carboxylate], for which the “Mass Retention (%)” value in data set [1] (same protocol, second table) is on record as 10.3%. In addition, the Kp was 0.44 in data set [2] (female, SCID, mouse, in vivo, tissue distribution of SDC-TRAP-0154, 6 h); 2.68 in data set [2] (female, SCID, mouse, in vivo, tissue distribution of SDC-TRAP-0154, 24 h); 26.8 in data set [2] (female, SCID, mouse, in vivo, tissue distribution of SDC-TRAP-0154, 48 h). Also, in data set [2] (tissue distribution of SDC-TRAP-0154, 1 h), the “Plasma Conc.” value is 215 µM. The “Tumor Conc.” value in data set [2] (tissue distribution of SDC-TRAP-0154, 24 h) is 0.115 nmol/g of tissue; in data set [2] (tissue distribution of SDC-TRAP-0154, 48 h), 0.0921 nmol/g of tissue.

In the case of `CCNC(=O)c1nnc(-c2cc(C(C)C)c(O)cc2O)n1-c1ccc(CN2CCC(C(=O)N3CCN(c4cc(C)c(OC(=O)Nc5cccc6c5CN(C5CCC(=O)NC5=O)C6=O)c(C)c4)CC3)CC2)cc1` (stereo not drawn) [SDC-TRAP-0195, 4-(4-(1-(4-(3-(2,4-dihydroxy-5-isopropylphenyl)-5-(ethylcarbamoyl)-4H-1,2,4-triazol-4-yl)benzyl)piperidine-4-carbonyl)piperazin-1-yl)-2,6-dimethylphenyl (2-(2,6-dioxopiperidin-3-yl)-1-oxoisoindolin-4-yl)carbamate], the “Mass Retention (%)” value in data set [1] (5 h incubation, first table) worked out at 27.1%.

In the case of `CCNC(=O)c1nnc(-c2cc(C(C)C)c(O)cc2O)n1-c1ccc2c(c1)CN(Cc1cc(OC)c(OC(=O)Nc3cccc4c3CN(C3CCC(=O)NC3=O)C4=O)c(OC)c1)C2` (stereo not drawn) [SDC-TRAP-0196, 4-((5-(3-(2,4-dihydroxy-5-isopropylphenyl)-5-(ethylcarbamoyl)-4H-1,2,4-triazol-4-yl)isoindolin-2-yl)methyl)-2,6-dimethoxyphenyl (2-(2,6-dioxopiperidin-3-yl)-1-oxoisoindolin-4-yl)carbamate], the “Mass Retention (%)” value in data set [1] (5 h incubation, first table) came to 22.3%.

On to `CCNC(=O)c1nnc(-c2cc(C(C)C)c(O)cc2O)n1-c1ccc(OC2CCN(c3cnc(C(=O)N[C@H]4C[C@H](O[C@H]5C[C@](O)(C(=O)CO)Cc6c(O)c7c(c(O)c65)C(=O)c5c(OC)cccc5C7=O)O[C@@H](C)[C@H]4O)cn3)CC2)cc1` [SDC-TRAP-0200, 5-(4-(4-(3-(2,4-dihydroxy-5-isopropylphenyl)-5-(ethylcarbamoyl)-4H-1,2,4-triazol-4-yl)phenoxy)piperidin-1-yl)-N-((2S,3S,4S,6R)-3-hydroxy-2-methyl-6-(((1S,3S)-3,5,12-trihydroxy-3-(2-hydroxyacetyl)-10-methoxy-6,11-dioxo-1,2,3,4,6,11-hexahydrotetracen-1-yl)oxy)tetrahydro-2H-pyran-4-yl)pyrazine-2-carboxamide], for which the “Mass Retention (%)” value in data set [1] (same protocol, second table) came to 10.6%.

Regarding `CCNC(=O)c1nnc(-c2cc(C(C)C)c(O)cc2O)n1-c1ccc2c(ccn2CCC2CCN(C(=O)Oc3ccc4nc5c(c(CC)c4c3)Cn3c-5cc4c(c3=O)COC(=O)[C@]4(O)CC)CC2)c1` [SDC-TRAP-0205, (S)-4,11-diethyl-4-hydroxy-3,14-dioxo-3,4,12,14-tetrahydro-1H-pyrano[3′,4′:6,7]indolizino[1,2-b]quinolin-9-yl 4-(2-(5-(3-(2,4-dihydroxy-5-isopropylphenyl)-5-(ethylcarbamoyl)-4H-1,2,4-triazol-4-yl)-1H-indol-1-yl)ethyl)piperidine-1-carboxylate], in data set [1] (same protocol, second table), the “Mass Retention (%)” value is 10.9%.

Consider `CCNC(=O)c1nnc(-c2cc(C(C)C)c(O)cc2O)n1-c1ccc2c(ccn2CCC2CCN(C(=O)O[C@]3(CC)C(=O)OCc4c3cc3n(c4=O)Cc4c-3nc3ccc(O)cc3c4CC)CC2)c1` [SDC-TRAP-0208, (S)-4,11-diethyl-9-hydroxy-3,14-dioxo-3,4,12,14-tetrahydro-1H-pyrano[3′,4′:6,7]indolizino[1,2-b]quinolin-4-yl 4-(2-(5-(3-(2,4-dihydroxy-5-isopropylphenyl)-5-(ethylcarbamoyl)-4H-1,2,4-triazol-4-yl)-1H-indol-1-yl)ethyl)piperidine-1-carboxylate], for which, in data set [1] (same protocol, second table), the “Mass Retention (%)” value turned out to be 25.0%.

In turn, `CCc1c2c(nc3ccc(OC(=O)N4CCC[C@H]4C(=O)N4CCC(CCn5ccc6cc(-n7c(O)nnc7-c7cc(C(C)C)c(O)cc7O)ccc65)CC4)cc13)-c1cc3c(c(=O)n1C2)COC(=O)[C@]3(O)CC` [SDC-TRAP-0210] had a Papp at 5 h in data set [1] of 0.00899 ×10⁻⁶ cm/s. In addition, the “Mass Retention (%)” value in data set [1] (5 h incubation, first table) stood at 34.8%. In data set [1] (same protocol, second table), the “Mass Retention (%)” value is given as 72.2% and the “Permeability (10^−6 cm/s)” value is on record as 0.00899 10^−6 cm/s.

Consider `CC(C)c1cc(-c2nnc(C(=O)NCCCCCS(N)(=O)=O)n2-c2ccc(CN3CCOCC3)cc2)c(O)cc1O` [SDC-TRAP-0232, 5-(2,4-dihydroxy-5-isopropylphenyl)-4-(4-(morpholinomethyl)phenyl)-N-(5-sulfamoylpentyl)-4H-1,2,4-triazole-3-carboxamide], for which the “Mass Retention (%)” value in data set [1] (5 h incubation, first table) stood at 21.0%. For the same molecule, the Papp at 5 h in data set [1] (setting [4]) and in data set [1] (setting [5]) was 0.00689 ×10⁻⁶ cm/s each time.
